Reference: US20090286831A1, “VR1 Receptor Ligands and u-Opioid Receptor Ligands for the Treatment of Pain” (priority 2006, published 2009)
Read-outs that look alike come from different tables or passages of the source. Marks after values point to notes of the source that are not given here.

Columns and labels:
[1] = target: T1, human recombinant μ-opioid receptor (Homo sapiens, UniProt P35372); experiment: Ki value at the μ-opioid receptor (Experiment 4); format: binding
T1 construct: expressed in transfected cells; host or cells: CHO-K1 cells (membrane preparation)
T1 sequence (P35372 whole entry): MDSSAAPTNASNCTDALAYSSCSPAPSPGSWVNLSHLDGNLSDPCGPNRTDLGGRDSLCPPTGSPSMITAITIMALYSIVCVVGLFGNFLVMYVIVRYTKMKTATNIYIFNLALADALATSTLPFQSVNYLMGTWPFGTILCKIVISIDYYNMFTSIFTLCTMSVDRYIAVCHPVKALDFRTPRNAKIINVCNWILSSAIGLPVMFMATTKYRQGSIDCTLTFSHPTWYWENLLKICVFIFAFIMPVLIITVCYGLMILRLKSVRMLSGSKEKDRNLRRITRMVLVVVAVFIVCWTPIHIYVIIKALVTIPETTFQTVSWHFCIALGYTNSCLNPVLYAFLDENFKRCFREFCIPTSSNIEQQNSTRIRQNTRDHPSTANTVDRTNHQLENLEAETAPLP

[2] = target: T2, vanilloid receptor 1 (VR1/TRPV1) (Homo sapiens, UniProt Q8NER1); experiment: FLIPR capsaicin assay; format: cell-based, human or rat
T2 construct: expressed in transfected cells; host or cells: CHO K1 cells (ECACC), stably transfected
T2 sequence (Q8NER1 whole entry): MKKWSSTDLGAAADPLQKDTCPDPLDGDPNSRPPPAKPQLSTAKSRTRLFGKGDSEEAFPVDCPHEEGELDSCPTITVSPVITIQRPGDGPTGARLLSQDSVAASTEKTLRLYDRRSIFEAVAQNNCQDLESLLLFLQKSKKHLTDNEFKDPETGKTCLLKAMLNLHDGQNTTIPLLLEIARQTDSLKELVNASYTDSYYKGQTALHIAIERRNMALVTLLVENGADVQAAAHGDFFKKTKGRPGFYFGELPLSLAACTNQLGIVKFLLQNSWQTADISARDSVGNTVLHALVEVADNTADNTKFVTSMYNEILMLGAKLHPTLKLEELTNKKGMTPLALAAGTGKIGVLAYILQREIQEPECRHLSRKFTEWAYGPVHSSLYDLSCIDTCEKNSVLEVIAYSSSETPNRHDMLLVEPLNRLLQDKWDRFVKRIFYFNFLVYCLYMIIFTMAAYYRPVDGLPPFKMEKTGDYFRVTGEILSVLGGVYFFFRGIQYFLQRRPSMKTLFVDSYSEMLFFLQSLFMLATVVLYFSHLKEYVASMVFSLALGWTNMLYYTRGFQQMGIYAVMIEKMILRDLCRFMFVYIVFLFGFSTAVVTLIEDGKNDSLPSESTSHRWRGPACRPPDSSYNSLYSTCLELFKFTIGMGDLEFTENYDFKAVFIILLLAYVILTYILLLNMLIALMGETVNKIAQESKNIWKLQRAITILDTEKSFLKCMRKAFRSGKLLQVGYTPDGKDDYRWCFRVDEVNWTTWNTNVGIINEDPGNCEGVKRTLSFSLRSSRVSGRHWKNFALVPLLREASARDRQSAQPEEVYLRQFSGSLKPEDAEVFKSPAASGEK
Excerpt: (§1) The agonist or antagonist effect of substances can be determined at the vanilloid receptor 1 (VR1/TRPV1) of the human and rat species with the assay described below. Accordingly, the Ca^2+ influx through the channel is quantified by means of a Ca^2+-sensitive dye (Fluo-4, Molecular Probes Europe BV, Leiden, The Netherlands) in the fluorescent imaging plate reader (FLIPR, Molecular Devices, Sunnyvale, USA).
(§2) Chinese hamster ovary cells (CHO K1 cells, ECACC, England) are stably transfected with human or rat VR1 cDNA. For functional studies these cells are plated onto poly-D-lysine-coated black 96-hole plates with a clear base (BD Biosciences, Heidelberg, Germany) in a density of 25 000 cells/cavity. The cells are incubated overnight at 37° C. with 5% CO2 in culture medium (nutrient mixture Ham's F12, Gibco Invitrogen GmbH, Karlsruhe, Germany) with 10% vol. FBS (foetal bovine serum, Gibco Invitrogen GmbH, Karlsruhe, Germany) and 18 μg/ml of L-proline (Gibco Invitrogen GmbH, Karlsruhe, Germany). On the following day, the cells are laden with 2 μM Fluo-4 and 0.01% vol. Pluronic F127 (Molecular Probes Europe BV, Leiden, The Netherlands) in HBSS buffer (Hank's buffered saline solution, Gibco Invitrogen GmbH, Karlsruhe, Germany) for 30 min at 37° C. The plates are then washed 3 times in HBSS buffer and after further incubation for 15 minutes at room temperature are placed in the FLIPR for the Ca^2+ measurement. In this case, the Ca^2+-dependent fluorescence is measured before and after the addition of substances (λex=488 nm, λem=540 nm). Quantification occurs as a result of the measurement of the highest fluorescence intensity (FC, fluorescence counts) over time.
The FLIPR protocol consists of 2 substance additions. Test substances (10 μM) are firstly pipetted onto the cells and the Ca^2+ influx is compared to the control (capsaicin 10 μM). This gives the specification in % activation in relation to the Ca^2+ signal after adding 10 μM of capsaicin. After 5 minutes incubation 100 nM of capsaicin are applied and the influx of Ca^2+ likewise determined. Desensitising agonists and antagonists lead to a suppression of the Ca^2+ influx. Inhibition values [%] are calculated in comparison to the maximum achievable inhibition with a saturating concentration of […] or another reference antagonist. The test substance is added in different concentrations to determine the IC50 and functional Ki value ((f)Ki). Triple determinations (n=3) are conducted and these are repeated in at least one further independent experiment (N>=2). A capsaicin dose action curve is generated to incorporate the thus determined EC50 values into the associated (f)Ki determination. EC50/IC50 values are calculated using ‘Prism4’ software from GraphPad Software™ or with XLfit4™ (ID Business Solutions Ltd.). (f)Ki values are calculated in accordance with the modified Cheng-Prusoff equation (Cheng, Prusoff; Biochem. Pharmacol. 22, 3099-3108, 1973). Testing for non-specific inhibition of the fluorescence as a result of the substances is conducted by activating wild type CHO K1 cells incubated with the same test substances with ATP (10 μM final concentration).

[3] = target: T3, human VR1 (Homo sapiens, UniProt Q8NER1); experiment: FLIPR pH assay; format: cell-based
T3 construct: expressed in transfected cells; host or cells: CHO K1 cells (ECACC), stably transfected
T3 sequence (Q8NER1 whole entry): as above
Excerpt: as §1, §2
In the pH assay, HBSS that now contains 60 mM MES instead of capsaicin is applied to human VR1-transfected CHO K1 cells (adjusted pH value of the addition solution is 4.95). Percentage inhibition and IC50 values are raised and evaluated as already described for the capsaicin test.

[4] = test system: rats; experiment: Tail-flick (hot beam) test in rats; format: in vivo, rat; conditions: dosage 1 mg/kg p.o.
[5] = test system: rats after spinal nerve ligature; experiment: Mono-neuropathic pain after spinal nerve ligature (Chung model), electronic von Frey; format: in vivo, rat
Procedure: Sprague Dawley rats (140-160 g body weight) were used for the following animal models. Sprague Dawley rats (140-160 g body weight) from a commercial breeder (Janvier, Genest St. Isle, France) were used. The animals were kept under standard conditions: light-dark rhythm (06:00 to 18:00 h light, 18:00 to 06:00 h dark), room temperature 19-23° C., relative air humidity 45-65%, air exchange 19 times per hour, air movement <0.2 m/s, free choice of tap water and standard feed, Macrolon Type 4 cages with 5 animals per cage. The solutions of the test substances and/or vehicles (10% […], 5% Cremophor EL, 5% glucose) were administered intravenously.
Under pentobarbital narcosis (Narcoren®, […] i.p., Merial GmbH, Hallbergmoos, Germany), the L5, L6 spinal nerves were firmly bound. The left L5 and L6 spinal nerves were exposed by removing a piece of paravertebral muscle and a portion of the left spinal process of the L5 lumbar vertebral body. The L5 and L6 spinal nerves were carefully isolated and bound with a firm ligature (NC silk, black, USP 5/0, metric 1, Braun Melsungen AG, Melsungen, Germany) (Kim and Chung, An experimental model for peripheral neuropathy produced by segmental spinal nerve ligature in the rat, Pain, 50, 1992, 355-363). After haemostasis was determined, the muscle and adjacent tissue were sutured and the wound closed by metal clamps. After a one-week recovery period the animals were placed in cages with a wire base closed to the top by a plastic hood for measurement of the mechanical allodynia. The animals were kept in this cage until their explorative behaviour had decreased.
The threshold for the tactile allodynia was measured by means of an electronic von Frey anaesthesiometer (Somedic AB, Malmö, Sweden). The animals were randomly divided into groups of 10 animals. Each group received an individual dose of test substance or vehicle and the measurements were conducted 0.5 h before application and at various times after intravenous administration. Both the ipsi- and the contra-lateral rear paw were tested. The median of five stimulations gave a measured data point. The data were determined as % maximum possible effect (% MPE) from the pre-tests of the Chung individual animals (=0% MPE) and the test values of an independent sham control group (=100% MPE). The effect of the test substance and the vehicle was calculated for each measurement time (i.e. 0.5, 1 and 3 h after application) as inter-individual % MPE value. […] The corresponding threshold values are given in gram (mean±SEM).

[6] = functional Ki, capsaicin 100 nM, VR1-transfected CHO K1 cells, modified Cheng-Prusoff, read-out: f(Ki) (VR1)
[7] = read-out: % inhibition (pH assay)
[8] = human VR1-transfected CHO K1 cells, 60 mM MES, pH 4.95, read-out: IC50 (pH)
[9] = Oxycodone 2.5 mg/kg i.v. group, Control (pre-test 0.5 h before application)
[10] = Oxycodone 2.5 mg/kg i.v., 30 min
[11] = Oxycodone 2.5 mg/kg i.v., 60 min
[12] = Oxycodone 2.5 mg/kg i.v., 180 min
[13] = Oxycodone 5 mg/kg i.v. group, Control (pre-test 0.5 h before application)
[14] = Oxycodone 5 mg/kg i.v., 180 min
[15] = AMG 517 2.5 mg/kg i.v. group, Control (pre-test 0.5 h before application)
[16] = AMG 517 2.5 mg/kg i.v., 180 min

`CC(C(=O)NCc1ccc(C(F)(F)F)nc1N1CCC(c2ccccc2)(N(C)C)CC1)c1ccc(NS(C)(=O)=O)c(F)c1` (centres unmarked) [[1], N-((2-(4-(dimethylamino)-4-phenylpiperidin-1-yl)-6-(trifluoromethyl)pyridin-3-yl)methyl)-2-(3-fluoro-4-(methylsulfonamido)phenyl)propanamide] was tested, and the Ki [1] was 46 nM, the Ki [2, 6] was 31.3 nM and the IC50 [3] was 806 nM. For the same compound, the “Tail-Flick [% MPE]” value [4] was 50%^2) % MPE.
Work on `Cc1cc(C(C)C(=O)NCc2ccc(C(F)(F)F)cc2N2CCC(Cc3ccccc3)(N(C)C)CC2)ccc1NS(C)(=O)=O` (centres unmarked) [[8], N-(2-(4-benzyl-4-(dimethylamino)piperidin-1-yl)-4-(trifluoromethyl)benzyl)-2-(3-methyl-4-(methylsulfonamido)phenyl)propanamide] yielded a Ki [1] of 22 nM, a Ki [2, 6] of 2.5 nM and an inhibition at 1 µM [3, 7] of 19%. It also gave an inhibition at 5 µM [3, 7] of 36% and an inhibition at 10 µM [3, 7] of 58%.
Compound `CC(C(=O)NCc1ccc(C(F)(F)F)nc1N1CCC(c2cccs2)(N(C)C)CC1)c1ccc(NS(C)(=O)=O)c(F)c1` (centres unmarked) [[3], N-((2-(4-(dimethylamino)-4-(thiophen-2-yl)piperidin-1-yl)-6-(trifluoromethyl)pyridin-3-yl)methyl)-2-(3-fluoro-4-(methylsulfonamido)phenyl)propanamide] has a Ki [1] of 119 nM, a Ki [2] of 10.9 nM and an IC50 [3, 8] of 335 nM.
In the case of `Cc1cc(C(C)C(=O)NCc2ccc(C(F)(F)F)cc2N2CCC(Cc3cccc(F)c3)(N(C)C)CC2)ccc1NS(C)(=O)=O` (centres unmarked) [[11], N-(2-(4-(dimethylamino)-4-(3-fluorobenzyl)piperidin-1-yl)-4-(trifluoromethyl)benzyl)-2-(3-methyl-4-(methylsulfonamido)phenyl)propanamide], the Ki [1] is reported as 50 nM, the Ki [2, 6] is reported as 1.6 nM and the inhibition at 5 µM [3, 7] is reported as 35%. It also gave an inhibition at 10 µM [3, 7] of 38%.
In the case of `CC(C(=O)NCc1ccc(C(F)(F)F)nc1N1CCC(Cc2ccccc2)(N(C)C)CC1)c1ccc(NS(C)(=O)=O)c(F)c1` (centres unmarked) [[5], N-((2-(4-benzyl-4-(dimethylamino)piperidin-1-yl)-6-(trifluoromethyl)pyridin-3-yl)methyl)-2-(3-fluoro-4-(methylsulfonamido)phenyl)propanamide], the Ki [1] is reported as 715 nM, the Ki [2] is reported as 6.3 nM and the IC50 [3, 8] is reported as 111 nM.
In the case of `COc1ccc2c3c1O[C@H]1C(=O)CC[C@@]4(O)[C@@H](C2)N(C)CC[C@]314` [Oxycodone, oxycodone], the “pull-away threshold value, contra-lateral rear paw, mean” value [5, 9] is reported as 54.0 gram, the “pull-away threshold value, ipsi-lateral rear paw, mean” value [5, 9] is reported as 21.0 gram and the “pull-away threshold value, contra-lateral rear paw, mean” value [5, 10] is reported as 67.8 gram. The “pull-away threshold value, ipsi-lateral rear paw, mean” value [5, 10] was 38.2 gram, the “pull-away threshold value, contra-lateral rear paw, mean” value [5, 11] was 53.1 gram and the “pull-away threshold value, ipsi-lateral rear paw, mean” value [5, 11] was 28.0 gram. For the same compound, the “pull-away threshold value, contra-lateral rear paw, mean” value [5, 12] was 52.5 gram, the “pull-away threshold value, ipsi-lateral rear paw, mean” value [5, 12] was 21.9 gram and the “pull-away threshold value, contra-lateral rear paw, mean” value [5, 13] was 52.6 gram. For the same compound, the “pull-away threshold value, ipsi-lateral rear paw, mean” value [5, 13] was 22.8 gram, the “pull-away threshold value, contra-lateral rear paw, mean” value ([5]; Oxycodone 5 mg/kg i.v., 30 min) was 70.0 gram and the “pull-away threshold value, ipsi-lateral rear paw, mean” value ([5]; Oxycodone 5 mg/kg i.v., 30 min) was 41.9 gram. The “pull-away threshold value, contra-lateral rear paw, mean” value ([5]; Oxycodone 5 mg/kg i.v., 60 min) was 56.4 gram, the “pull-away threshold value, ipsi-lateral rear paw, mean” value ([5]; Oxycodone 5 mg/kg i.v., 60 min) was 32.1 gram and the “pull-away threshold value, contra-lateral rear paw, mean” value [5, 14] was 51.4 gram. For the same compound, the “pull-away threshold value, ipsi-lateral rear paw, mean” value [5, 14] was 22.0 gram and the “efficacy (conclusion)” value ([5]; combination of two threshold doses of the same opioid, pull away increased on ipsi- and contra-lateral paw) was “additive antinociceptive efficacy”.
For `CC(=O)Nc1nc2c(Oc3cc(-c4ccc(C(F)(F)F)cc4)ncn3)cccc2s1` [AMG 517], the “pull-away threshold value, contra-lateral rear paw, mean” value [5, 15] was 49.9 gram, the “pull-away threshold value, ipsi-lateral rear paw, mean” value [5, 15] was 20.6 gram and the “pull-away threshold value, contra-lateral rear paw, mean” value ([5]; AMG 517 2.5 mg/kg i.v., 30 min) was 50.9 gram. For the same compound, the “pull-away threshold value, ipsi-lateral rear paw, mean” value ([5]; AMG 517 2.5 mg/kg i.v., 30 min) was 29.2 gram, the “pull-away threshold value, contra-lateral rear paw, mean” value ([5]; AMG 517 2.5 mg/kg i.v., 60 min) was 49.6 gram and the “pull-away threshold value, ipsi-lateral rear paw, mean” value ([5]; AMG 517 2.5 mg/kg i.v., 60 min) was 21.1 gram. The “pull-away threshold value, contra-lateral rear paw, mean” value [5, 16] was 51.7 gram and the “pull-away threshold value, ipsi-lateral rear paw, mean” value [5, 16] was 20.7 gram.
Work on `CC(C(=O)NCc1ccc(C(C)(C)C)nc1N1CCC(Cc2ccccc2)(N(C)C)CC1)c1ccc(NS(C)(=O)=O)c(F)c1` (centres unmarked) [[6], N-((2-(4-benzyl-4-(dimethylamino)piperidin-1-yl)-6-tert-butylpyridin-3-yl)methyl)-2-(3-fluoro-4-(methylsulfonamido)phenyl)propanamide] yielded a Ki [1] of 3130 nM, a Ki [2] of 2.6 nM and an IC50 [3, 8] of 1360 nM.
`CC(C(=O)NCc1ccc(C(C)(C)C)nc1N1CCC(c2ccccc2)(N(C)C)CC1)c1ccc(NS(C)(=O)=O)c(F)c1` (centres unmarked) [[2], N-((6-tert-butyl-2-(4-(dimethylamino)-4-phenylpiperidin-1-yl)pyridin-3-yl)methyl)-2-(3-fluoro-4-(methylsulfonamido)phenyl)propanamide] gave a Ki [1] of 350 nM, a Ki [2] of 3.7 nM and an IC50 [3, 8] of 368 nM.
`CC(C(=O)NCc1ccc(C(F)(F)F)nc1N1CCC(Cc2cccc(F)c2)(N(C)C)CC1)c1ccc(NS(C)(=O)=O)c(F)c1` (centres unmarked) [[9], N-((2-(4-(dimethylamino)-4-(3-fluorobenzyl)piperidin-1-yl)-6-(trifluoromethyl)pyridin-3-yl)methyl)-2-(3-fluoro-4-(methylsulfonamido)phenyl)propanamide] showed a Ki [1] of 2080 nM, a Ki [2] of 2.4 nM and an IC50 [3, 8] of 145 nM.
